# From ChEMBL document CHEMBL5390198, “Scaffold hopping of N-benzyl-3,4,5-trimethoxyaniline: 5,6,7-Trimethoxyflavan derivatives as novel potential anticancer agents modulating hippo signaling pathway” (2023)
# Active and inactive are the calls of the source. The rule behind the calls is not given here.
# Assays:
# A549 [1] = assay: Induction of cell cycle arrest in human A549 cells assessed as increase in number of cells in G2/M phase by flow cytometry analysis; type: functional, cell-based; details: dose 1-4 µM
# T47D = assay: Antiproliferative activity against human T47D cells assessed as inhibition of cell growth at 10 uM measured after 24 to 72 hrs by SRB method relative to control; type: functional; details: time 24-72 hrs
# NCI-H226 = assay: cells; type: functional; details: Homo sapiens, time 24-72 hrs
# Description: Antiproliferative activity against human NCI-H226 cells assessed as inhibition of cell growth at 10 uM measured after 24 to 72 hrs by SRB method relative to control
# PC-3 [2] = assay: Potency index, ratio of enzalutamide GI50 to test compound GI50 for growth inhibition of human PC-3 cells measured after 24 to 72 hrs by SRB method; type: functional; details: time 24-72 hrs
# PC-3 [3] = assay: Growth inhibition of human PC-3 cells measured after 24 to 72 hrs by SRB method; type: functional; details: time 24-72 hrs
# DU-145 [4] = assay: Potency index, ratio of enzalutamide GI50 to test compound GI50 for growth inhibition of human DU-145 cells measured after 24 to 72 hrs by SRB method; type: functional; details: time 24-72 hrs
# SK-MEL-28 = assay: Growth inhibition of human SK-MEL-28 cells measured after 24 to 72 hrs by SRB method; type: functional; details: time 24-72 hrs
# COLO 205 = assay: Growth inhibition of human COLO 205 cells measured after 24 to 72 hrs by SRB method; type: functional; details: time 24-72 hrs
# BT-549 = assay: Antiproliferative activity against human BT-549 cells assessed as inhibition of cell growth at 10 uM measured after 24 to 72 hrs by SRB method relative to control; type: functional; details: time 24-72 hrs
# DU-145 [5] = assay: Growth inhibition of human DU-145 cells measured after 24 to 72 hrs by SRB method; type: functional; details: time 24-72 hrs
# A549 [6] = assay: Induction of cell cycle arrest in human A549 cells assessed as decrease in Cdc25c expression measured after 24 hrs by Western blot analysis; type: functional, cell-based; details: dose 1-4 µM
# HOP-62 = assay: Antiproliferative activity against human HOP-62 cells assessed as inhibition of cell growth at 10 uM measured after 24 to 72 hrs by SRB method relative to control; type: functional; details: time 24-72 hrs
# A549 [7] = assay: Induction of cell cycle arrest in human A549 cells assessed as increase in p53 expression measured after 24 hrs by Western blot analysis; type: functional, cell-based; details: dose 1-4 µM
# A549 [8] = assay: Induction of apoptosis in human A549 cells assessed as increase in apoptotic cells measured after 48 hrs by annexin V-FITC/PI staining based flow cytometry analysis; type: functional, cell-based; details: dose 1-4 µM
# NCI-H23 = assay: cells; type: functional; details: Homo sapiens, time 24-72 hrs
# Description: Antiproliferative activity against human NCI-H23 cells assessed as inhibition of cell growth at 10 uM measured after 24 to 72 hrs by SRB method relative to control
# A549 [9] = assay: Induction of cell cycle arrest in human A549 cells assessed as decrease in number of cells in G0/G1 phase at 1 to 4 uM by flow cytometry analysis; type: functional, cell-based; details: dose 1-4 µM
# A549 [10] = assay: Inhibition of PI3K/AKT/mTOR signalling pathway in human A549 cells assessed as inhibition of P70S6K phosphorylation measured after 24 hrs by Western blot analysis; type: cell-based; details: dose <= 4.0 µM
# NCI-H522 = assay: Antiproliferative activity against human NCI-H522 cells assessed as inhibition of cell growth at 10 uM measured after 24 to 72 hrs by SRB method relative to control; type: functional; details: time 24-72 hrs
# A549 [11] = assay: Induction of cell cycle arrest in human A549 cells assessed as decrease in cyclin H expression measured after 24 hrs by Western blot analysis; type: functional, cell-based; details: dose 1-4 µM
# A549 [12] = assay: Induction of apoptosis in human A549 cells assessed as increase necrotic cell death at 1 to 4 uM measured after 48 hrs by annexin V-FITC/PI staining based flow cytometry analysis; type: functional; details: dose 1-4 µM
# SK-OV-3 = assay: Growth inhibition of human SK-OV-3 cells measured after 24 to 72 hrs by SRB method; type: functional; details: pooled result: one value given for 7 cell lines, strains, targets or settings, time 24-72 hrs
# SF-295 = assay: Growth inhibition of human SF-295 cells measured after 24 to 72 hrs by SRB method; type: functional; details: time 24-72 hrs
# ACHN = assay: Growth inhibition of human ACHN cells measured after 24 to 72 hrs by SRB method; type: functional; details: time 24-72 hrs
# A549 [13] = assay: Induction of apoptosis in human A549 cells assessed as increase in cleaved caspase-7 expression measured after 48 hrs by Western blot analysis; type: functional, cell-based; details: dose <= 4.0 µM
# CCRF-CEM = assay: Antiproliferative activity against human CCRF-CEM cells assessed as inhibition of cell growth at 10 uM measured after 24 to 72 hrs by SRB method relative to control; type: functional; details: time 24-72 hrs
# MDA-MB-231 = assay: Antiproliferative activity against human MDA-MB-231 cells assessed as inhibition of cell growth at 10 uM measured after 24 to 72 hrs by SRB method relative to control; type: functional; details: time 24-72 hrs
# A549 [14] = assay: Induction of apoptosis in human A549 cells assessed as increase in cleaved caspase-3 expression measured after 48 hrs by Western blot analysis; type: functional, cell-based; details: dose <= 4.0 µM
# SR = assay: Antiproliferative activity against human SR cells assessed as inhibition of cell growth at 10 uM by measured after 24 to 72 hrs SRB method relative to control; type: functional; details: time 24-72 hrs
# KM12 = assay: Growth inhibition of human KM12 cells measured after 24 to 72 hrs by SRB method; type: functional; details: time 24-72 hrs
# K562 = assay: Antiproliferative activity against human K562 cells assessed as inhibition of cell growth at 10 uM measured after 24 to 72 hrs by SRB method relative to control; type: functional; details: time 24-72 hrs
# HOP-92 = assay: cells; type: functional; details: Homo sapiens, time 24-72 hrs
# Description: Antiproliferative activity against human HOP-92 cells assessed as inhibition of cell growth at 10 uM measured after 24 to 72 hrs by SRB method relative to control
# RPMI-8226 = assay: Antiproliferative activity against human RPMI-8226 cells assessed as inhibition of cell growth at 10 uM measured after 24 to 72 hrs by SRB method relative to control; type: functional; details: time 24-72 hrs
# SF-268 = assay: Growth inhibition of human SF-268 cells measured after 24 to 72 hrs by SRB method; type: functional; details: time 24-72 hrs
# NCI-H322M = assay: Antiproliferative activity against human NCI-H322M cells assessed as inhibition of cell growth at 10 uM measured after 24 to 72 hrs by SRB method relative to control; type: functional; details: time 24-72 hrs
# A549 [15] = assay: Activation of Hippo signaling pathway in human A549 cells assessed as decrease in YAP incubated for 24 hrs by Western blotting analysis; type: cell-based; details: filed as activator, dose <= 4.0 µM
# MCF7 = assay: Antiproliferative activity against human MCF7 cells assessed as inhibition of cell growth at 10 uM measured after 24 to 72 hrs by SRB method relative to control; type: functional; details: time 24-72 hrs
# A549 [16] = assay: cells; type: functional; details: Homo sapiens, time 24-72 hrs
# Description: Antiproliferative activity against human A549 cells assessed as inhibition of cell growth at 10 uM measured after 24 to 72 hrs by SRB method relative to control
# A549 [17] = assay: Induction of apoptosis in human A549 cells assessed as decrease in caspase-3 expression measured after 48 hrs by Western blot analysis; type: functional, cell-based; details: dose <= 4.0 µM
# A549 [18] = assay: Induction of apoptosis in human A549 cells assessed as decrease in PARP expression measured after 48 hrs by Western blot analysis; type: functional, cell-based; details: dose <= 4.0 µM
# MDA-MB-435 = assay: Growth inhibition of human MDA-MB-435 cells measured after 24 to 72 hrs by SRB method; type: functional; details: time 24-72 hrs
# EKVX = assay: cells; type: functional; details: Homo sapiens, time 24-72 hrs
# Description: Antiproliferative activity against human EKVX cells assessed as inhibition of cell growth at 10 uM measured after 24 to 72 hrs by SRB method relative to control
# A549 [19] = assay: Induction of cell cycle arrest in human A549 cells assessed as decrease in cyclin B1 expression measured after 24 hrs by Western blot analysis; type: functional, cell-based; details: dose 1-4 µM
# Hs-578T = assay: Antiproliferative activity against human Hs-578T cells assessed as inhibition of cell growth at 10 uM measured after 24 to 72 hrs by SRB method relative to control; type: functional; details: time 24-72 hrs
# A549 [20] = assay: Induction of apoptosis in human A549 cells assessed as increase in cleaved PARP expression measured after 48 hrs by Western blot analysis; type: functional, cell-based; details: dose <= 4.0 µM
# A549 [21] = assay: Activation of Hippo signaling pathway in human A549 cells assessed as increase in p-MOB1/MOB1 ratio at upto 4 uM incubated for 24 hrs by Western blotting analysis; type: cell-based; details: filed as activator
# A549 [22] = assay: Activation of Hippo signaling pathway in human A549 cells assessed as increase in […] at upto 4 uM incubated for 24 hrs by Western blotting analysis; type: cell-based; details: filed as activator
# MDA-MB-468 = assay: Antiproliferative activity against human MDA-MB-468 cells assessed as inhibition of cell growth at 10 uM measured after 24 to 72 hrs by SRB method relative to control; type: functional; details: time 24-72 hrs
# MOLT-4 = assay: Antiproliferative activity against human MOLT-4 cells assessed as inhibition of cell growth at 10 uM measured after 24 to 72 hrs by SRB method relative to control; type: functional; details: time 24-72 hrs
# A549 [23] = assay: Induction of cell cycle arrest in human A549 cells assessed as decrease in cyclin A1 expression measured after 24 hrs by Western blot analysis; type: functional, cell-based; details: dose 1-4 µM
# HL-60 = assay: Antiproliferative activity against human HL-60 cells assessed as inhibition of cell growth at 10 uM measured after 24 to 72 hrs by SRB method relative to control; type: functional; details: time 24-72 hrs
# NCI-H460 = assay: cells; type: functional; details: Homo sapiens, time 24-72 hrs
# Description: Antiproliferative activity against human NCI-H460 cells assessed as inhibition of cell growth at 10 uM measured after 24 to 72 hrs by SRB method relative to control
# A498 = assay: Growth inhibition of human A498 cells measured after 24 to 72 hrs by SRB method; type: functional; details: time 24-72 hrs
structure (smiles),measurement,setting,value
COc1ccc(NC(=O)c2cccc(C3CCc4c(cc(OC)c(OC)c4OC)O3)c2)cc1 (configuration not stated),Activity,A549 [1],Dose-Dependent Effect
same,inhibition at 10 µM,T47D,> 60%
same,inhibition at 10 µM,NCI-H226,52.5%
same,fold change (FC),PC-3 [2],12
same,GI50,PC-3 [3],1.58 µM
same,fold change (FC),DU-145 [4],12
same,GI50,SK-MEL-28,4.07 µM
same,GI50,COLO 205,2.4 µM
same,inhibition at 10 µM,BT-549,> 60%
same,GI50,DU-145 [5],2.95 µM
same,Activity,A549 [6],Dose-Dependent Effect
same,inhibition at 10 µM,HOP-62,69.3%
same,Activity,A549 [7],Dose-Dependent Effect
same,Activity,A549 [8],Dose-Dependent Effect
same,inhibition at 10 µM,NCI-H23,47.9%
same,Activity,A549 [9],Active
same,inhibition,A549 [10],Dose-Dependent Effect
same,inhibition at 10 µM,NCI-H522,78.2%
same,Activity,A549 [11],Dose-Dependent Effect
same,Activity,A549 [12],inactive
same,GI50,SK-OV-3,2.82 µM
same,GI50,SF-295,2.51 µM
same,GI50,ACHN,4.27 µM
same,Activity,A549 [13],Dose-Dependent Effect
same,inhibition at 10 µM,CCRF-CEM,> 60%
same,inhibition at 10 µM,MDA-MB-231,> 60%
same,Activity,A549 [14],Dose-Dependent Effect
same,inhibition at 10 µM,SR,> 60%
same,GI50,KM12,3.47 µM
same,inhibition at 10 µM,K562,> 60%
same,inhibition at 10 µM,HOP-92,102%
same,inhibition at 10 µM,RPMI-8226,> 60%
same,GI50,SF-268,5.13 µM
same,inhibition at 10 µM,NCI-H322M,46.1%
same,Activity,A549 [15],Dose-Dependent Effect
same,inhibition at 10 µM,MCF7,> 60%
same,inhibition at 10 µM,A549 [16],67.9%
same,Activity,A549 [17],Dose-Dependent Effect
same,Activity,A549 [18],Dose-Dependent Effect
same,GI50,MDA-MB-435,0.52 µM
same,inhibition at 10 µM,EKVX,53%
same,Activity,A549 [19],Dose-Dependent Effect
same,inhibition at 10 µM,Hs-578T,> 60%
same,Activity,A549 [20],Dose-Dependent Effect
same,Activity,A549 [21],Active
same,Activity,A549 [22],Active
same,inhibition at 10 µM,MDA-MB-468,> 60%
same,inhibition at 10 µM,MOLT-4,> 60%
same,Activity,A549 [23],Dose-Dependent Effect
same,inhibition at 10 µM,HL-60,> 60%
same,inhibition at 10 µM,NCI-H460,81.8%
same,GI50,A498,1.38 µM
